Measurements: patent US12540120B2, “Herbicidal compounds” (SYNGENTA CROP PROTECTION AG, priority 2019, dated 2026)

Experiments:
Assay type in all cases: in vivo
[1] = system: Abutilon theophrasti (ABUTH); experiment: B6 Pre-Emergence Efficacy—Test 3; settings: pre-emergence application, 250 g/ha, evaluated after 13 days (Test 3)
Protocol: (§1) B6 Pre-Emergence Efficacy—Test 3 Seeds of a variety of test species were sown in standard soil in pots: Amaranthus retoflexus (AMARE), Setaria faberi (SETFA), Echinochloa crus-galli (ECHCG), Ipomoea hederacea (IPOHE), Zea Mays (ZEAMX), Abutilon theophrasti (ABUTH). After cultivation for one day (pre-emergence) under controlled conditions in a glasshouse (at 24/16° C., day/night; 14 hours light; 65% humidity), the plants were sprayed with an aqueous spray solution derived from the formulation of the technical active ingredient in acetone/water (50:50) solution containing 0.5% Tween 20 (polyoxyethelyene sorbitan monolaurate, CAS RN 9005-64-5). Compounds are applied at 250 g/ha. The test plants were then grown in a glasshouse under controlled conditions (at 24/16° C., day/night; 14 hours light; 65% humidity) and watered twice daily. After 13 days, the test is evaluated for the percentage damage caused to the plant. The biological activities are assessed on a five point scale (5=80-100%; 4=60-79%; 3=40-59%; 2=20-39%; 1=0-19%). A blank value in the table is indicative that the compound was not tested on that species.

[2] = system: Ipomoea hederacea (IPOHE); experiment: B6 Pre-Emergence Efficacy—Test 3; settings: pre-emergence application, 250 g/ha, evaluated after 13 days (Test 3)
Protocol: as §1

Zea Mays (ZEAMX) [3] = experiment: B6 Pre-Emergence Efficacy—Test 3; settings: pre-emergence application, 250 g/ha, evaluated after 13 days (Test 3)
Protocol: as §1

Setaria faberi (SETFA) [4] = experiment: B6 Pre-Emergence Efficacy—Test 3; settings: pre-emergence application, 250 g/ha, evaluated after 13 days (Test 3)
Protocol: as §1

[5] = system: Amaranthus retoflexus (AMARE); experiment: B6 Pre-Emergence Efficacy—Test 3; settings: pre-emergence application, 250 g/ha, evaluated after 13 days (Test 3)
Protocol: as §1

[6] = system: Echinochloa crus-galli (ECHCG); experiment: B6 Pre-Emergence Efficacy—Test 3; settings: pre-emergence application, 250 g/ha, evaluated after 13 days (Test 3)
Protocol: as §1

[7] = system: Abutilon theophrasti (ABUTH); experiment: B3 Post-Emergence Efficacy—Test 3; settings: post-emergence application, 250 g/ha, evaluated after 13 days (Test 3)
Protocol: (§2) B3 Post-Emergence Efficacy—Test 3 Seeds of a variety of test species are sown in standard soil in pots:—Amaranthus retoflexus (AMARE), Setaria faberi (SETFA), Echinochloa crus-galli (ECHCG), Ipomoea hederacea (IPOHE), Zea Mays (ZEAMX), Abutilon theophrasti (ABUTH). After 8 days cultivation (post-emergence) under controlled conditions in a glasshouse (at 24/16° C., day/night; 14 hours light; 65% humidity), the plants are sprayed with an aqueous spray solution derived from the formulation of the technical active ingredient in acetone/water (50:50) solution containing 0.5% Tween 20 (polyoxyethylene sorbitan monolaurate, CAS RN 9005-64-5). Compounds are applied at 250 g/ha. The test plants are then grown in a glasshouse under controlled conditions in a glasshouse (at 24/16° C., day/night; 14 hours light; 65% humidity) and watered twice daily. After 13 days, the test is evaluated for the percentage damage caused to the plant. The biological activities are assessed on a five point scale (5=80-100%; 4=60-79%; 3=40-59%; 2=20-39%; 1=0-19%). A blank value in the table is indicative that the compound was not tested on that species.

[8] = system: Ipomoea hederacea (IPOHE); experiment: B3 Post-Emergence Efficacy—Test 3; settings: post-emergence application, 250 g/ha, evaluated after 13 days (Test 3)
Protocol: as §2

Zea Mays (ZEAMX) [9] = experiment: B3 Post-Emergence Efficacy—Test 3; settings: post-emergence application, 250 g/ha, evaluated after 13 days (Test 3)
Protocol: as §2

Setaria faberi (SETFA) [10] = experiment: B3 Post-Emergence Efficacy—Test 3; settings: post-emergence application, 250 g/ha, evaluated after 13 days (Test 3)
Protocol: as §2

[11] = system: Amaranthus retoflexus (AMARE); experiment: B3 Post-Emergence Efficacy—Test 3; settings: post-emergence application, 250 g/ha, evaluated after 13 days (Test 3)
Protocol: as §2

[12] = system: Echinochloa crus-galli (ECHCG); experiment: B3 Post-Emergence Efficacy—Test 3; settings: post-emergence application, 250 g/ha, evaluated after 13 days (Test 3)
Protocol: as §2

Cc1nn(C)c(=O)c(-c2c(F)ccc(Cl)c2CCc2cnn(C3CC3)c2)c1O [Compound A-1.387]
percentage damage caused to the plant, five point scale, ABUTH [1]: 4 (4=60-79%) | percentage damage caused to the plant, five point scale, IPOHE [2]: 5 (5=80-100%) | percentage damage caused to the plant, five point scale, ZEAMX (Zea Mays (ZEAMX) [3]): 4 (4=60-79%) | percentage damage caused to the plant, five point scale, SETFA (Setaria faberi (SETFA) [4]): 5 (5=80-100%) | percentage damage caused to the plant, five point scale, AMARE [5]: 5 (5=80-100%) | percentage damage caused to the plant, five point scale, ECHCG [6]: 5 (5=80-100%) | percentage damage caused to the plant, five point scale, ABUTH [7]: 4 (4=60-79%) | percentage damage caused to the plant, five point scale, IPOHE [8]: 4 (4=60-79%) | percentage damage caused to the plant, five point scale, ZEAMX (Zea Mays (ZEAMX) [9]): 4 (4=60-79%) | percentage damage caused to the plant, five point scale, SETFA (Setaria faberi (SETFA) [10]): 4 (4=60-79%) | percentage damage caused to the plant, five point scale, AMARE [11]: 4 (4=60-79%) | percentage damage caused to the plant, five point scale, ECHCG [12]: 4 (4=60-79%)
